Consider six compounds from patent US8486919B2, “4-alkylresorcinol derivative and external preparation for skin containing the same” (Shiseido Company, Ltd., priority 2010, dated 2013).

Series [1] deals with Mouse B16 melanoma cells. The experiment in a line: Melanin production inhibition test. Format: cell-based. The following applies: 3 days, ratio to solvent-only group. The procedure: (§1) The melanin production inhibitory effect and the cytotoxicity was studied according to the following method.
(§2) (1) Inoculation of Cells and Addition of Test Substances
(§3) Mouse B16 melanoma cells were inoculated in a six well plate at 100,000 cells/well. The next day, test substance solutions (solvent: dimethylsulfoxide) were added thereto and then subjected to the melanin production inhibition test and cytotoxicity test.
(3) Melanin Production Inhibition Test
Three days after the addition of the test substance solution, the medium was removed by aspiration. The cells were washed with a buffer (50 mM phosphate buffer, pH6.8), and then lysed by addition of 1M NaOH to measure an absorbance at 475 nm. Using the value thus measured as a relative value of the melanin amount, a ratio of the melanin amount (%) of the test substance-added group to the test substance-absent group (group in which only the solvent was added) was calculated. The lower the ratio of the melanin amount, the higher the melanin production-inhibitory effect.

Series [2] deals with Mouse B16 melanoma cells. Nature of the series: Cell proliferation test (cytotoxicity test, Alamar Blue). Format: cell-based. The conditions noted are these: 3 days, ratio to solvent-only group. The procedure:
as §1, §2, §3
(2) Cell Proliferation Test
Three days after the addition of the test substance solution, the medium was removed by aspiration. Then 1 mL of EMEM medium containing 10% Alamar Blue solution was added, and a reaction was allowed to proceed at 37° C. After 30 minutes, 100 μL of the reaction mixture was transferred to a 96 well plate and fluorescence was measured at an excitation wavelength of 544 nm and a measurement wavelength of 590 nm. Using the value thus measured as a relative value of cell count, a ratio of the cell count (% cell count) of the test substance-added group to the test substance-absent group (group in which only the solvent was added) was calculated. The higher the % cell count, the lower the cytotoxicity.

[3] abbreviates: final concentration of test compound 2.2 μM.
The mark [4] stands for this setting: final concentration of test compound 22 μM.
[5] abbreviates: final concentration of test compound 220 μM.
Setting [6] is: final concentration of test compound 2.0 μM.
[7] abbreviates: final concentration of test compound 6.6 μM.
The mark [8] stands for this setting: final concentration of test compound 66 μM.
[9] abbreviates: final concentration of test compound 1.0 μM.
The mark [10] stands for this setting: final concentration of test compound 10 μM.
[11] abbreviates: final concentration of test compound 33 μM.
The mark [12] stands for this setting: final concentration of test compound 1.6 μM.
Where [13] appears, read: final concentration of test compound 16 μM.
[14] abbreviates: final concentration of test compound 52 μM.
Setting [15] is: final concentration of test compound 0.9 μM.
Where [16] appears, read: final concentration of test compound 8.5 μM.
Setting [17] is: final concentration of test compound 28 μM.
Where [18] appears, read: final concentration of test compound 9.6 μM.
[19] abbreviates: final concentration of test compound 32 μM.

On to `CCc1ccc(O)cc1O` [Comparative Compound 1, 4-ethylresorcinol], for which the “Melanin Amount Ratio (%)” value was found to be 69% in the series on Mouse B16 melanoma cells [1] (setting [3]), 24% with Mouse B16 melanoma cells [1] (setting [4]) and 16% in the series with Mouse B16 melanoma cells [1] (setting [5]). The “Cell Count (%)” value in the series on Mouse B16 melanoma cells [2] (setting [3]) came to 101%; in the series on Mouse B16 melanoma cells [2] (setting [4]), 102%; with Mouse B16 melanoma cells [2] (setting [5]) it was 93%.

With `CC(C)c1ccc(O)cc1O` [Comparative Compound 2, 4-isopropylresorcinol], the “Melanin Amount Ratio (%)” value worked out at 32% in the series with Mouse B16 melanoma cells [1] (setting [6]), 17% in the series on Mouse B16 melanoma cells [1] (setting [7]) and 12% with Mouse B16 melanoma cells [1] (setting [8]). Moreover, the “Cell Count (%)” value is reported as 99% with Mouse B16 melanoma cells [2] (setting [6]), 97% in the series with Mouse B16 melanoma cells [2] (setting [7]) and 98% with Mouse B16 melanoma cells [2] (setting [8]).

As to `CCc1ccc(OP(=O)(O)O)cc1OP(=O)(O)O` [Compound 1, 1,3-bisphosphonooxy-4-ethylbenzene], the “Melanin Amount Ratio (%)” value in the series with Mouse B16 melanoma cells [1] (setting [9]) turned out to be 62%; in the series on Mouse B16 melanoma cells [1] (setting [10]), 25%; with Mouse B16 melanoma cells [1] (setting [11]), 16%. The “Cell Count (%)” value in the series on Mouse B16 melanoma cells [2] (setting [9]) was found to be 101%; in the series on Mouse B16 melanoma cells [2] (setting [10]), 108%; with Mouse B16 melanoma cells [2] (setting [11]) it was 113%.

As to `Oc1ccc(C2CCCCC2)c(O)c1` [Comparative Compound 3, 4-cyclohexylresorcinol], the “Melanin Amount Ratio (%)” value in the series with Mouse B16 melanoma cells [1] (setting [12]) is reported as 43%; in the series with Mouse B16 melanoma cells [1] (setting [13]), 22%; with Mouse B16 melanoma cells [1] (setting [14]), 17%. In addition, the “Cell Count (%)” value in the series with Mouse B16 melanoma cells [2] (setting [12]) is 99%; with Mouse B16 melanoma cells [2] (setting [13]), 98%; with Mouse B16 melanoma cells [2] (setting [14]), 76%.

On to `O=P(O)(O)Oc1ccc(C2CCCCC2)c(OP(=O)(O)O)c1` [Compound 3, 1,3-bisphosphonooxy-4-cyclohexylbenzene], for which the results for the “Melanin Amount Ratio (%)” value with Mouse B16 melanoma cells [1] (setting [15]), with Mouse B16 melanoma cells [1] (setting [16]) and in the series on Mouse B16 melanoma cells [1] (setting [17]) were 48%, 20% and 15%, respectively. Further, the entries for the “Cell Count (%)” value in the series with Mouse B16 melanoma cells [2] (setting [15]), in the series on Mouse B16 melanoma cells [2] (setting [16]) and in the series with Mouse B16 melanoma cells [2] (setting [17]) were 102%, 105% and 101%, respectively.

As to `CC(C)c1ccc(OP(=O)(O)O)cc1OP(=O)(O)O` [Compound 2, 1,3-bisphosphonooxy-4-isopropylbenzene], the “Melanin Amount Ratio (%)” value with Mouse B16 melanoma cells [1] (setting [9]) came to 47%; in the series with Mouse B16 melanoma cells [1] (setting [18]) it was 16%; in the series on Mouse B16 melanoma cells [1] (setting [19]) it was 13%. In addition, the “Cell Count (%)” value in the series on Mouse B16 melanoma cells [2] (setting [9]) was determined as 99%; with Mouse B16 melanoma cells [2] (setting [18]), 95%; with Mouse B16 melanoma cells [2] (setting [19]), 103%.
